From patent US11858899B2, “Complexation of pirfenidone with polyphenolic calixarene or resorcin[4]arenes” (University of Cincinnati, priority 2021, dated 2024)
Values after ≈ are worked out from the molar mass of the structure shown. “Also recorded” adds a separate entry of the source. Where two headings read alike, the source gives them in different places.

Tests used:
[1] = system: C. acnes; assay: Broth serial dilution MIC / growth inhibition in 96-well plate; type: cell-based, Cutibacterium acnes; details: for GI (growth inhibition): at the MIC concentration; for MIC: test range 128-2 ug/mL, LB medium
Experimental: 3 mg/ml stock solutions of RsC1, PFD and RsC1-PFD were prepared in DMSO (bcoz host soluble in DMSO solution). From the stock, a working solution 4× (highest conc. for each compound in plate) was prepared in LB media. 50 uL of LB media were first added in each well (96 well plate). Then a 4× solution of each respective compound was added to the first row (A4-A12) except A1-A3 (Positive control/bacterial innoculum). Then the 4× was serially diluted up to well G for all 3 compounds. (A-G). Then, a 50 uL aliquot of the 100-fold diluted bacterial inoculum was added in each test well. Individual test concentrations (in triplicate wells in a 96-well plate) for the given compounds were achieved by serial dilution by using LB medium. Total volume in each well was 100 uL. The final-test concentration range for the individual test compounds for C. acne were as follows: Macrocycle, PFD and RsC1-PFD complex (128-2 ug/mL). The results are shown in FIG. 10, which is a bar plot of absorbance (at 600 nm) at various test compound concentrations, showing the percent inhibition of pathogen growth in the presence of decreasing concentrations of the test compounds using a twofold dilution series.
(§1) 3 mg/ml stock solutions of PFD, RsC4-PFD (1:1 complex), and RsC4 were prepared in DMSO (bcoz host soluble in DMSO solution). From the stock, a working solution 4× (highest conc. for each compound in plate) was prepared in LB media. 50 uL of LB media was first added in each well (96 well plate). Then a 4× solution of the respective compound was added to the first row (A4-A12) except A1-A3 (Positive control/bacterial innoculum). Then, the 4× was serially diluted up to well G for all 3 compounds. (A-G). Then, a 50 uL aliquot of the 100-fold diluted bacterial inoculum was added in each test well. Individual test concentrations (in triplicate wells in a 96-well plate) for the given compounds were achieved by serial dilution by using LB medium. Total volume in each well is 100 uL. The final-test concentration range for the individual test compounds for C. acne as follows: Macrocycle, PFD and RsC4-PFD complex (128-2 ug/mL).
as §1, with “PFD, RsC1, RsC1-PFD (1:1 complex), RsC4, and” for “PFD,”, “complex)” for “complex), and RsC4”, “acnes, S. aureus and P. aeruginosa are” for “acne”, “PFD, RsC1, RsC4, RsC1-PFD complex” for “Macrocycle, PFD”

[2] = system: P. aeruginosa (BAMF); assay: as above; type: cell-based, Pseudomonas aeruginosa; details: for GI (growth inhibition): at the MIC concentration; for MIC: test range 128-2 ug/mL, LB medium
Experimental: as §1, with “PFD, RsC1, RsC1-PFD (1:1 complex), RsC4, and” for “PFD,”, “complex)” for “complex), and RsC4”, “acnes, S. aureus and P. aeruginosa are” for “acne”, “PFD, RsC1, RsC4, RsC1-PFD complex” for “Macrocycle, PFD”

[3] = system: Pseudomonas aeruginosa (G-ve) bacteria; assay: Zone of inhibition (ZI) paper disc test, antibacterial/antioxidant activity; type: cell-based; details: for Inference: radical scavenger: from ZI change with H2O2 / pyrogallol; for Zone of inhibition (ZI), 5 uL of (Compound + H2O2): premixed 0.01M compound + 0.88M H2O2, 1:1; for Zone of inhibition (ZI), 5 uL of (Compound + Pyrogallol): premixed 0.01M compound + 1M Pyrogallol, 1:1; for Zone of inhibition (ZI), 5 uL of 0.01M Compound: pure compound on paper disc;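 for Inference: radical scavenger: smaller zone than oxidant alone means antioxidant and larger means oxidant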
Experimental: (§2) Tests were conducted to check the antioxidant/antibacterial activity of macrocycle and host-guest compounds. 5 uL of 0.01M compound, 5 uL (premixed, 0.01M compound+1M Pyrogallol, 1:1) and 5 uL (premixed, 0.01M compound+0.88M H2O2, 1:1) were added on paper discs placed on plates. 5 uL of 1M pyrogallol, 5 uL of 0.88M H2O2 were used as control (oxidants). In the following tables, Decrease/Increase means wrt pure H2O2 or pyrogallol. […] Zone=mm of zone width around disk. Decrease/Increase wrt pure H2O2 or pyrogallol.

[4] = system: klebsiella pneumoniae (G -ve) bacteria; assay: as above; type: cell-based; details: for Inference: radical scavenger: from ZI change with H2O2 / pyrogallol; for Zone of inhibition (ZI), 5 uL of (Compound + H2O2): premixed 0.01M compound + 0.88M H2O2, 1:1; for Zone of inhibition (ZI), 5 uL of (Compound + Pyrogallol): premixed 0.01M compound + 1M Pyrogallol, 1:1; for Zone of inhibition (ZI), 5 uL of 0.01M Compound: pure compound on paper disc;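 for Inference: radical scavenger: smaller zone than oxidant alone means antioxidant and larger means oxidant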
Experimental: as §2

[5] = system: E. Coli (G-ve) bacteria; assay: as above; type: cell-based; details: for Inference: radical scavenger: from ZI change with H2O2 / pyrogallol; for Zone of inhibition (ZI), 5 uL of (Compound + H2O2): premixed 0.01M compound + 0.88M H2O2, 1:1; for Zone of inhibition (ZI), 5 uL of (Compound + Pyrogallol): premixed 0.01M compound + 1M Pyrogallol, 1:1; for Zone of inhibition (ZI), 5 uL of 0.01M Compound: pure compound on paper disc;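 for Inference: radical scavenger: smaller zone than oxidant alone means antioxidant and larger means oxidant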
Experimental: as §2

[6] = system: Staphylococcus aureus (G+ve) bacteria; assay: as above; type: cell-based; details: for Inference: radical scavenger: from ZI change with H2O2 / pyrogallol; for Inference: Anti-bacterial potential: from ZI of pure compound; for Zone of inhibition (ZI), 5 uL of (Compound + H2O2): premixed 0.01M compound + 0.88M H2O2, 1:1, decrease vs pure H2O2 = antioxidant; for Zone of inhibition (ZI), 5 uL of (Compound + Pyrogallol): premixed 0.01M compound + 1M Pyrogallol, 1:1, decrease vs pure pyrogallol = antioxidant; for Zone of inhibition (ZI), 5 uL of 0.01M Compound: pure compound on paper disc, zone width around disk
Experimental: as §2, with “disk.” for “disk. Decrease/Increase wrt pure H2O2 or pyrogallol.”

[7] = system: S. aureus (MU50); assay: Broth serial dilution MIC / growth inhibition in 96-well plate; type: cell-based, Staphylococcus aureus; details: for GI (growth inhibition): at the MIC concentration; for MIC: test range 128-2 ug/mL, LB medium
Experimental: as §1, with “PFD, RsC1, RsC1-PFD (1:1 complex), RsC4, and” for “PFD,”, “complex)” for “complex), and RsC4”, “acnes, S. aureus and P. aeruginosa are” for “acne”, “PFD, RsC1, RsC4, RsC1-PFD complex” for “Macrocycle, PFD”

| Structure (SMILES) | GI (growth inhibition) [1] [%] | GI (growth inhibition) [2] [%] | Zone of inhibition (ZI), 5 uL of (Compound + H2O2) [3] | Zone of inhibition (ZI), 5 uL of (Compound + Pyrogallol) [3] | Zone of inhibition (ZI), 5 uL of 0.01M Compound [3] | Inference: radical scavenger [4] | Zone of inhibition (ZI), 5 uL of (Compound + H2O2) [4] | Zone of inhibition (ZI), 5 uL of (Compound + Pyrogallol) [4] | Zone of inhibition (ZI), 5 uL of 0.01M Compound [4] | Inference: radical scavenger [5] | Zone of inhibition (ZI), 5 uL of (Compound + H2O2) [5] | Zone of inhibition (ZI), 5 uL of (Compound + Pyrogallol) [5] | Zone of inhibition (ZI), 5 uL of 0.01M Compound [5] | Inference: radical scavenger [6] | Zone of inhibition (ZI), 5 uL of (Compound + H2O2) [6] | Zone of inhibition (ZI), 5 uL of (Compound + Pyrogallol) [6] | Zone of inhibition (ZI), 5 uL of 0.01M Compound [6] | GI (growth inhibition) [7] [%] | Inference: radical scavenger [3] | further results |
| --- | --- | --- | --- | --- | --- | --- | --- | --- | --- | --- | --- | --- | --- | --- | --- | --- | --- | --- | --- | --- |
| CC1c2cc(c(O)cc2O)C(C)c2cc(c(O)cc2O)C(C)c2cc(c(O)cc2O)C(C)c2cc1c(O)cc2O (stereo not shown) [RsC1, C-methylresorcin[4]arene] | 96 | 47 | (2.1 mm) | pyrogallol (1.2 mm | No ZI | Moderate | (2.4 mm) | No ZI | No ZI | Moderate | (1.9 mm) | No ZI | No ZI | potential/Low | (4.2 mm) | (2.5 mm) | (1.2 mm) | 98 |  | percent inhibition of pathogen growth ([1]; at 16 μg/mL, absorbance at 600 nm (FIG. 10)): 35%; MIC [1]: 64 µg/mL (≈ 118 µM); MIC [2]: 64 µg/mL (≈ 118 µM); Inference: radical scavenger ([3]; listed as R1): low antioxidant activity; also recorded: Low radical; Inference: Anti-bacterial potential ([6]; listed as R1): slight anti-bacterial activity; MIC [7]: 16 µg/mL (≈ 29.4 µM) |
| Cc1ccc(=O)n(-c2ccccc2)c1 [PFD, 5-methyl-1-phenylpyridin-2-one] | 98 | 35 | (2.7 mm) | pyrogallol (1.2 mm | No ZI | Moderate | (2.2 mm) | No ZI | No ZI | Moderate OH | (1.7 mm) | No ZI | No ZI | low to high free radical scavenging effect; also recorded: Moderate | slightly (3.8 mm | No ZI | No ZI | 45 | no free radical scavenging effect | MIC ([1]; Cutibacterium acnes, read-out: MIC): 128 µg/mL (≈ 691 µM); MIC ([2]; Pseudomonas aeruginosa, read-out: MIC): 128 µg/mL (≈ 691 µM); MIC ([7]; Staphylococcus aureus, read-out: MIC): 128 µg/mL (≈ 691 µM) |
| Oc1cccc(O)c1O [pyrogallol, Pyrogallol] |  |  |  |  |  |  |  |  |  |  |  |  |  |  |  |  |  |  |  | Zone of inhibition (ZI), 5 uL of 1M pyrogallol ([3]; oxidant control alone): ZI (1.1 mm; Zone of inhibition (ZI), 5 uL of 1M pyrogallol ([4]; oxidant control alone): ZI (0.9 mm; Zone of inhibition (ZI), 5 uL of 1M pyrogallol ([5]; oxidant control alone): ZI (0.9 mm; Zone of inhibition (ZI), 5 uL of 1M pyrogallol ([6]; oxidant control alone): (3.3 mm) |
| OO [H2O2] |  |  |  |  |  |  |  |  |  |  |  |  |  |  |  |  |  |  |  | Zone of inhibition (ZI), 5 uL of 0.88M H2O2 ([3]; oxidant control alone): ZI (2.7 mm; Zone of inhibition (ZI), 5 uL of 0.88M H2O2 ([4]; oxidant control alone): ZI (3 mm; Zone of inhibition (ZI), 5 uL of 0.88M H2O2 ([5]; oxidant control alone): ZI (2.9 mm; Zone of inhibition (ZI), 5 uL of 0.88M H2O2 ([6]; oxidant control alone): (4.6 mm) |
| CCCCCCC1c2cc(c(O)c(O)c2O)C(CCCCCC)c2cc(c(O)c(O)c2O)C(CCCCCC)c2cc(c(O)c(O)c2O)C(CCCCCC)c2cc1c(O)c(O)c2O (stereo not shown) [P6] |  |  | (2.2 mm) | pyrogallol (1.2 mm | No ZI | Moderate | (2 mm) | No ZI | No ZI | Moderate | (1.7 mm) | No ZI | No ZI | Low radical | (3.8 mm) | (2 mm) | No ZI |  | Low radical |  |
| CCCCC1c2cc(c(O)cc2O)C(CCCC)c2cc(c(O)cc2O)C(CCCC)c2cc(c(O)cc2O)C(CCCC)c2cc1c(O)cc2O (stereo not shown) [RsC4, C-butylresorcin[4]arene] | 98 | 56 | (2.1 mm) | (1.4 mm) | No ZI | High OH | No ZI | No ZI | No ZI | Moderate | (1.7 mm) | No ZI | No ZI | Low radical | (3.6 mm) | (2.3 mm) | No ZI | 52 | Low radical | MIC [1]: 128 µg/mL (≈ 180 µM); MIC [2]: 64 µg/mL (≈ 89.8 µM); Inference: Anti-bacterial potential [6]: none; MIC [7]: 128 µg/mL (≈ 180 µM) |
| OCCN1CCN(Cc2ccc(O)c3ncccc23)CC1 [VK] |  |  | (2.2 mm) | (0.7 mm) | No ZI | Moderate | (2.3 mm) | No ZI | No ZI | High radical | No ZI | No ZI | No ZI | Low radical | (3.7 mm) | (2.3 mm) | No ZI |  | Moderate |  |
